This is an account of results in article PMC7311950, “Potent Tetrahydroquinolone Eliminates Apicomplexan Parasites” (Frontiers in Cellular and Infection Microbiology, 2020).

By solubility is commonly meant how much of the substance goes into solution per volume. High values mean a readily soluble substance, low ones a poorly soluble substance. One may read the IC50 as the point on the concentration scale where inhibition reaches its midpoint. In general, half-life refers to how long it takes for the measured level to halve. Broadly, the IC90 is the point of the concentration-response curve where the effect stands at 90%.

Data set [1] is described as follows: Kinetic solubility in PBS pH 7.4 (Chem Partners). The method, then: (§1) The effects of changing R1 as 7-Et, 7-Me, 6-CF3, or 6-Me on activity against RH strain tachyzoites, kinetic solubility, and metabolic stability were compared. Kinetic solubility and metabolic stability in human or murine liver microsomes were measured. The hERG (human Ether-à-go-go-Related) liability was also determined. The hERG gene (KCNH2) encodes a protein Kv11.1, the alpha subunit of a potassium ion channel. This channel conducts the rapid component of the delayed rectifier potassium current, IKr, which is critical for repolarization of cardiac action potentials. A reduction in hERG currents from adverse drug effects can lead to long QT interval syndromes. These syndromes are characterized by action potential prolongation, lengthening of the QT interval on surface EKG, and an increased risk for “torsade de pointes” arrhythmias and sudden death. The MDCK-MDR1 Permeability Assay was also performed. MDCK-MDR1 refers to the ability of a compound to permeate across membranes of MDCK-MDR1 (Madin Darby canine kidney [MDCK] cells with the MDR1 gene [ABCB1], the gene encoding for the efflux protein, P-glycoprotein (P-gp)) in vitro. Assessing transport in both directions (apical to basolateral and basolateral to apical) across the cell monolayers enables an efflux ratio to be determined. […] This provides a prediction of blood brain barrier (BBB) penetration potential/permeability and efflux ratio. Effect in CACO-2 (Colon Adenocarcinoma cells) as a permeability assay and on cytochrome P450 (CYP 450) were also determined. CYP enzymes catalyze oxidative biotransformation (phase 1 metabolism) of most drugs. CYP enzymes, bind to membranes in a cell (cyto) and contain a heme pigment (chrome and P) that absorbs light at a wavelength of 450 nm when exposed to carbon monoxide. Metabolism of a drug by CYP enzymes is a major source of variability in drug effect. These were measured by Chem Partners. The relative effect on HFF and parasite enzymes also were compared.

The test system of another data set is HepG2 cells. The experiment in a line: Cytotoxicity with HepG2 cells. Format: cell-based. Conditions: Homo sapiens. The method, then: Toxicity studies also were performed with HepG2 cells (human liver cancer immortal cell line derived from the liver tissue of a […]) in parallel with the studies of P. falciparum, with inhibitors in vitro, as described in McPhillie et al. ([2016]).

Data set [2] concerns T. gondii EGS strain bradyzoites. The experiment in a line: In vitro challenge assay for EGS strain bradyzoites. Conditions: for number of true cysts and small organisms: EGS strain, at 1 and 10 μM, immunofluorescence microscopy; for IC50: EGS strain in HFF, Figure 1A, read-out: Brady IC50. The data set is classed as cell-based, Toxoplasma gondii. The method, then:
HFF cells were grown in IMDM on removable, sterile glass cover slips in the bottom of a clear, flat-bottomed 24-well plate. Cultures were infected with 3 × 10^4 EGS strain parasites per well, in 0.5 mL media. The plate was returned to incubator at 37°C overnight. The following day, the media was removed. Colorless IMDM and compounds were added to make various concentrations of the drug. Total volume was 0.5 mL. Two wells had media only, as a control. Plates were returned to the 37°C incubator for 72 h, checked once each 24 h. If tachyzoites were visible in the control before 72 h, cells were fixed and stained. Cells were fixed using 4% paraformaldehyde and stained with Fluorescein-labeled Dolichos Biflorus Agglutinin, DAPI, and antibody to BAG1. Disks were removed, mounted on glass slides, and visualized using microscopy (Nikon Tl7). Slides were scanned using a CRi Panoramic Scan Whole Slide Scanner and viewed using Panoramic Viewer Software. Effects of compounds were quantitated by counting cysts in controls and treated cultures. Dolichos staining delimited structures and single organisms that remained were counted in a representative field of view. This was then multiplied by a factor determined by the total area of the cover slip in order to estimate the number of cysts and organisms in each condition. When the following forms were observed: “true cysts” with a dolichos-staining wall, “pseudocysts” or tight clusters of parasites, and small organisms, if there were fewer than four parasites visible in a cluster, organisms were counted individually (as “small organisms”). The entire scanned coverslip with all fields was also reviewed by 3 observers to confirm consistency.

The nature of data set [3]: Metabolic stability in human liver microsomes. Conditions: for Human liver microsomes: stability, Figure 2E. On the procedure:
as §1
In vitro absorption, distribution, metabolism, excretion, and toxicity (ADMET) analyses of the THQ compounds were outsourced to ChemPartner Shanghai Ltd. ELQ-271 (synthesized in-house) was tested as a comparison.

The mark [4] stands for this setting: PBS, pH 7.4, aqueous solubility (PBS, pH 7.4), amorphous compounds.
Where [5] appears, read: dose response testing, read-out: HEP G2 IC50.

In brackets after ≈: the same amount, converted by molar mass. Like-named read-outs stand apart in the source and are kept apart here.

With `Cc1[nH]c2c(c(=O)c1-c1ccc(Oc3ccc(Cl)cc3)cc1)CCCC2` [JAG50], the values for the solubility in data set [1] (setting [4]) and in data set [1] (pH 7.4) were 16 µM (≈ 5.85 µg/mL) and 16.4 µM (≈ 6 µg/mL), respectively. For the same molecule, the IC50 stood at 7.1 µM in the data set on HepG2 cells (setting [5]) and 2 µM in data set [2] (Toxoplasma gondii). Also, the “number of true cysts and small organisms” value in data set [2] is recorded as “statistically significant reduction”. The molecule also registered a half-life in data set [3] (human, liver microsomes) of 1.65 h. In data set [3], this molecule showed a Human liver microsomes of 99.04 min.

On to `Cc1[nH]c2c(c(=O)c1-c1ccc(Oc3ccc(OC(F)(F)F)cc3)cc1)CCCC2` [JAG21, 2-Methyl-3-(4-(4-(Trifluoromethoxy)Phenoxy)Phenyl)-5,6,7,8-Tetrahydroquinolin-4-One], for which the solubility in data set [1] (setting [4]) is 7 µM (≈ 2.91 µg/mL); in data set [1] (PBS, pH 7.4, solubility of the microcrystalline form, microcrystalline form), 3.5 µM (≈ 1.45 µg/mL); in data set [1] (pH 7.4), 7.07 µM (≈ 2.94 µg/mL). In addition, the IC50 in the data set with HepG2 cells (setting [5]) was 17.7 µM; in the data set on HepG2 cells (supplement summary, read-out: IC50, human HepG2 cells) it was above 17 µM; in data set [2] (Toxoplasma gondii), 2 µM. Moreover, in data set [2] (500 nM), the “EGS bradyzoites in treated cultures” value was “we do not see EGS bradyzoites”. Besides, the “number of true cysts and small organisms” value in data set [2] is “statistically significant reduction”. Moreover, the IC90 in data set [2] (Toxoplasma gondii, supplement summary) was below 1 µM. The “remaining in human liver microsomes” value in data set [3] (after 45 min) is listed as above 99%. Moreover, the Human liver microsomes result in data set [3] is “∞”.
